The test system of series [1] is Jurkat cells (human T-cell leukemia cell line). Description: Apoptosis assay. The series is classed as cell-based. Conditions: SK1-I 10, 20 μM, ozanimod 5, 10 μM. The procedure: (§1) The protocol used for the apoptosis assays was: • Plated cells in 6-well plates and incubated at 37° C. overnight. • Prepared concentrations of test compound and control compound DMSO in media. • Ozanimod: 5 μM, 10 μM, and 20 μM. • ABC294640: 10 μM, 20 μM, and 40 μM. • SK1-I: 10 μM, 20 μM, and 40 μM. • Control: 0.2% DMSO. • Aspirated the medium from the 6-well plates and added test compound concentrations in media or 0.2% DMSO control in media. Incubated at 37° C. for 24 hours. • Collected and processed the cells following the flow cytometry protocol of the GFP Certified® Apoptosis/Necrosis detection kit from Enzo Life Sciences, Inc. (product no. ENZ-51002; Farmingdale, NY, USA).
(§2) FIGS. 5-16 present graphs plotting the data from these 24-hour apoptosis assays for the different concentrations of compounds and no-drug control for the various cell lines. Channel FL2 picks up the apoptosis signal and channel FL3 picks up the necrosis signal. Data points in Quadrant 3 (Q3) in the graphs corresponds to cells undergoing apoptosis (cells positive for the apoptosis detection reagent of the assay). Data points in Quadrant 2 (Q2) in the graphs corresponds to cells that are positive for the apoptosis detection reagent and positive for the necrosis detection reagent of the assay (indicative of late-stage apoptosis).

Another series concerns Hep G2 cells. The series is described as follows: Apoptosis/necrosis assay (flow cytometry, GFP Certified Apoptosis/Necrosis detection kit). The format is cell-based, human. Conditions: 24 hours, SK1-I 10, 20, 40 μM, ozanimod 10, 20, 40 μM, ABC294640 10, 20, 40 μM. The procedure: (§3) Apoptosis/necrosis assays evaluating the effect of different concentrations of each of ozanimod, ABC294640 and SK1-I on the four human hepatocellular carcinoma cell lines, Hep G2, Hep 3B, Huh 7 and PLC-PRF5 were also performed.
(§4) The protocol used for the apoptosis assays was: • Plated cells in 6-well plates and incubated at 37° C. overnight. • Prepared […], 20 μM, and 40 μM. • SK1-I: 10 μM, 20 μM, and 40 μM. • Control: 0.2% DMSO. • Aspirated the medium from the 6-well plates and added test compound concentrations in media or 0.2% DMSO control in media. Incubated at 37° C. for 24 hours. • Collected and processed the cells following the flow cytometry protocol of the GFP Certified® Apoptosis/Necrosis detection kit from Enzo Life Sciences, Inc. (product no. ENZ-51002; Farmingdale, NY, USA).
as §2
In general terms: In flow cytometry, cells or beads pass a laser one at a time.

The next series concerns Hep 3B cells. The series is described as above. The format is cell-based, human. Particulars: 24 hours, SK1-I 10, 20, 40 μM, ozanimod 10, 20, 40 μM, ABC294640 10, 20, 40 μM. Here is the method: as §3, §4, §2
Series [2] concerns primary human hepatocytes. Description: Apoptosis assay on normal (non-cancerous) primary human hepatocytes. The format is cell-based. Particulars: 24 hours; SK1-I 10, 20, 40 μM; ozanimod 2.5, 5, 10 μM; any concentration tested. Here is the method:
In still further experiments, the effects of SK1-I and ozanimod on normal (non-cancerous) primary human hepatocytes were investigated. Fresh human hepatocytes in a 12-well plate (HUF12) were obtained from Triangle Research Labs (Durham, NC, USA; part of Lonza Group) and handled according to the supplier's protocol. The shipping medium was aspirated from each well and replaced with 1 ml per well of warm Hepatocyte Maintenance Medium. The plate was then placed in a 5% CO2 incubator at 37° C. and the hepatocytes were allowed to acclimate overnight. The Hepatocyte Maintenance Medium was replaced before treatment with drug or no-drug control, and the hepatocytes were treated with 0 μM (no-drug control), 10 μM, 20 μM, or 40 μM SK1-I or 0 μM, 2.5 μM, 5 μM, or 10 μM ozanimod for 24 hours under incubation. The cells were then harvested and analyzed using the GFP Certified® Apoptosis/Necrosis detection kit. The results are shown in FIGS. 19A-D for SK1-I and FIGS. 20A-D for ozanimod as follows.

The next series deals with Huh7 cells. The series is described as follows: Apoptosis/necrosis assay (flow cytometry, GFP Certified Apoptosis/Necrosis detection kit). The series is classed as cell-based, human. Conditions: 24 hours, SK1-I 10, 20, 40 μM, ozanimod 5, 10, 20 μM, ABC294640 10, 20, 40 μM. Here is the method:
as §3, §1, §2

The next series deals with PLC-PRF5 cells. Described as above. The series is classed as cell-based, human. Conditions: 24 hours, SK1-I 10, 20, 40 μM, ozanimod 5, 10, 20 μM, ABC294640 10, 20, 40 μM. The procedure: as §3, §1, §2
Series [3] concerns human hepatocellular carcinoma cell lines, Hep G2, Huh 7, and PLC-PRF5. The series is described as follows: MTT cell viability assay (48 hours). The format is cell-based. Conditions: Hep G2, Huh 7, PLC-PRF5. Here is the method: The following MTT assay protocol was followed. • Prepared stock solutions: 50 mM ozanimod, 50 mM ABC294640, 10 mM SK1-I in DMSO. • Plated 20000 cells in 160 μl medium per well in 96-well plates for each cell line and incubated at 37° C. overnight. • Prepared compound serial dilutions: for ozanimod and ABC294640: dilute stock 50 mM 1:50 in medium to 1000 μM; for SK1-I, dilute stock 10 mM 1:50 in medium to […] them make serial 1:1.8 fold serial dilution to the titration. For negative control, diluted DMSO 1:50 to medium. • Added 40 μl negative control and serially titrated compounds to 160 μl of cells for each cell line. Performed in triplicate for each cell line. • Incubated at 37° C. for 72 hours. • Performed assay using Vybrant MTT Cell Proliferation Assay kit (V-13154) (Molecular Probes) from Thermo Fisher Scientific (Waltham, MA USA).
48-hour treatment MTT assays were also performed as follows.
For orientation: Tetrazolium assays rely on reduction of a dye to a coloured formazan, in cell work by metabolically active cells.

For a further series, the system named is Jurkat cells. Description: Cell viability effects (FIG. 21). The format is cell-based, human. Conditions: Jurkat cells without IL-2; 5 μM of each agent.

Consider `CCCCCc1ccc(/C=C/[C@H](O)[C@@H](CO)NC)cc1` [SK1-I, (E,2R,3S)-2-(methylamino)-5-(4-pentylphenyl)pent-4-ene-1,3-diol], for which the induction of apoptosis result (in series [1]; in the series on Hep G2 cells; with Hep 3B cells; in the series on Huh7 cells; in the series with PLC-PRF5 cells) was “strongly induced apoptosis” each time. Moreover, in series [2], the “induction of apoptosis of primary human hepatocytes” value was “did not induce apoptosis”. For the same molecule, in series [3], the “killing hepatocellular carcinoma cells, compared with PF-543” value is “more effective at killing hepatocellular carcinoma cells than PF-543”.

In the case of `CC(C)Oc1ccc(-c2nc(-c3cccc4c3CC[C@@H]4NCCO)no2)cc1C#N` [ozanimod, 5-[3-[(1S)-1-(2-hydroxyethylamino)-2,3-dihydro-1H-inden-4-yl]-1,2,4-oxadiazol-5-yl]-2-propan-2-yloxybenzonitrile], the induction of apoptosis result (in series [1]; in the series with Hep G2 cells; with Hep 3B cells; in the series on Huh7 cells; with PLC-PRF5 cells) was “strongly induced apoptosis” in each case. The “induction of apoptosis of primary human hepatocytes” value in series [2] is given as “did not induce apoptosis”. Also, in the series with Jurkat cells, the cell viability result is recorded as “strongly decreases viability”.

For the molecule `O=C(NCc1ccncc1)C12CC3C[C@H](C1)CC(c1ccc(Cl)cc1)(C3)C2` [ABC294640, (7 S)-3-(4-chlorophenyl)-N-(pyridin-4-ylmethyl)adamantane-1-carboxamide], the induction of apoptosis result was “failed to induce apoptosis” in the series on Hep G2 cells, “did not substantially induce apoptosis” in the series on Hep 3B cells, “failed to induce apoptosis” in the series with Huh7 cells and “did not substantially induce apoptosis” in the series with PLC-PRF5 cells.

These data come from patent publication US11865105B2, “Sphingosine pathway modulating compounds for the treatment of cancers” (Enzo Biochem, Inc., priority 2017, dated 2024).
